Assay results taken from PMC5481814, “Stapled Voltage-Gated Calcium Channel (CaV) α-Interaction Domain (AID) Peptides Act As Selective Protein–Protein Interaction Inhibitors of CaV Function” (ACS Chemical Neuroscience, 2017).
Starred links: 1 amine or outer side, 2 acyl side, 3 side chain; linkers in the order of their positions; H or OH if unused. Positions of bridges follow the written chain, without caps; N, C: chain ends. Residues, ends and D or L forms follow the SMILES beside them. No end group written: not given here. mXylylene = c1cc(C[*:1])cc(C[*:2])c1

Experiments:
CaVβ2a core = CaVβ2a core (Rattus norvegicus, UniProt Q8VGC3); assay: Isothermal titration calorimetry, AID peptide:CaVβ2a binding; settings: for Kd: 150 mM KCl, 10 mM potassium phosphate, 20 μM peptide into 2 μM CaVβ2a core
Source text: Having determined that the backbone staples are able to affect AID helix content (Figure 1) and are structurally compatible with the CaVβ-AID interaction (Figure 2), we used isothermal titration calorimetry (ITC) to investigate whether the AID staples impacted binding thermodynamics. […] (Figure 3A, Table 1). This binding reaction is driven by a favorable enthalpic component (ΔH = −15.6 ± 2.4 kcal mol^–1) that is opposed by a large entropic cost (ΔS = −16.7 ± 6.0 cal mol^–1 K^–1) that most likely results from the requirement to reduce the degrees of freedom of the highly disordered ligand upon binding.
Titrations were performed at 15 °C using a VP-ITC microcalorimeter (MicroCal). Samples were dialyzed overnight at 4 °C (Slide-A-Lyzer, 2 kDa molecular weight cutoff, Thermo Scientific) against 150 mM KCl and 10 mM potassium phosphate, pH 7.3. After 30 min centrifugation at 40 000 rpm at 4 °C, protein concentrations were determined by absorbance at 280 nm.[91] All samples were degassed for 5 min prior to loading into the calorimeter. CaV1.2 CaVβ2a core at a concentration of 2 μM was titrated with 20 μM modified or unmodified AID peptide with one 4 μL injection followed by 29 injections of 10 μL of titrant. To correct the baseline, heat of dilution from titrations of injectant into buffer was subtracted. Data were processed with MicroCal Origin 7.0 using a single site binding model.

CaV1.2:CaVβ3 = molecular target: T1, CaV1.2:CaVβ3 (Oryctolagus cuniculus, UniProt P54286); assay: Peptide injection competition, two-electrode voltage clamp, CaV1.2:CaVβ3 channels in Xenopus oocytes; type: cell-based, human CaV1.2; Xenopus oocytes; settings: for V1/2, midpoint of activation: Ca2+ charge carrier
T1 construct: expressed in transfected cells; host or cells: Xenopus oocytes (mRNA injection)

CaV1.2-Y437A:CaVβ2a = CaV1.2-Y437A:CaVβ2a (Rattus norvegicus, UniProt Q8VGC3); assay: Peptide injection competition, two-electrode voltage clamp, CaV1.2-Y437A:CaVβ2a channels in Xenopus oocytes; settings: 400 μM peptide; for ti300, percent inactivation at 300 ms / A1, relative amplitude of fast inactivation component / A2, relative amplitude of second inactivation component / τ1, fast inactivation time constant / τ2, second inactivation time constant: +20 mV; for ti300, percent inactivation at 300 ms / V1/2, midpoint of activation: Ca2+ charge carrier; for ti300, percent inactivation at 300 ms / A1, relative amplitude of fast inactivation component / A2, relative amplitude of second inactivation component / τ1, fast inactivation time constant / τ2, second inactivation time constant / V1/2, midpoint of activation / Imax, maximal current amplitude: mean ± SEM
[1] = Circular dichroism of AID peptides (helical content); type: physicochemical; settings: 70 μM, 4 °C, 50 mM KCl, 10 mM potassium phosphate, pH 7.3, 2 mm cuvette, triplicate points
Description: Circular dichroism spectra were measured in a 2 mm path length quartz cuvette (Hellma), 50 mM KCl, and 10 mM KH2PO4/K2HPO4, pH 7.3, using an Aviv model 215 spectropolarimeter (Aviv Biomedical) equipped with a Peltier temperature controller. Wavelength scans from 320 to 190 nm were taken at 4 °C. Each point was determined in triplicate from the same sample and subtracted by the average of a triplicate buffer scan. Each sample was checked for purity by HPLC. Molar ellipticity was calculated as follows: θ = 100(Δm)/(Cnl), where Δm is the CD signal in millidegrees after buffer subtraction, C is the millimolar peptide concentration, n is the number of residues in the peptide, and l is the cuvette path length in centimeters.

[2] = ITC, 15 °C, pH 7.3, single site model, n = 3 (Cav1.2 AID), 2 (AID-CEN), 3 (AID-CAP)
[3] = ITC, 15 °C, pH 7.3, n = 3 (Cav1.2 AID), 2 (AID-CEN), 3 (AID-CAP)
[4] = 2.8 mM peptide, over 30 min postinjection
[5] = 5 min postinjection, 2.8 mM peptide, +20 mV, double exponential fit, mean ± SEM, N = 6 (AID-CAP), 7 (AID)
[6] = 5 min postinjection, 2.8 mM peptide, +20 mV, monoexponential fit, mean ± SEM, N = 6 (AID-CAP), 7 (AID)
[7] = 5 min postinjection, 2.8 mM peptide, mean ± SEM, N = 6 (AID-CAP), 7 (AID)
[8] = 30 min postinjection, 2.8 mM peptide, +20 mV, monoexponential fit, mean ± SEM, N = 6 (AID-CAP), 7 (AID)
[9] = 30 min postinjection, 2.8 mM peptide, mean ± SEM, N = 6 (AID-CAP), 7 (AID)

T1 sequence (P54286 whole entry): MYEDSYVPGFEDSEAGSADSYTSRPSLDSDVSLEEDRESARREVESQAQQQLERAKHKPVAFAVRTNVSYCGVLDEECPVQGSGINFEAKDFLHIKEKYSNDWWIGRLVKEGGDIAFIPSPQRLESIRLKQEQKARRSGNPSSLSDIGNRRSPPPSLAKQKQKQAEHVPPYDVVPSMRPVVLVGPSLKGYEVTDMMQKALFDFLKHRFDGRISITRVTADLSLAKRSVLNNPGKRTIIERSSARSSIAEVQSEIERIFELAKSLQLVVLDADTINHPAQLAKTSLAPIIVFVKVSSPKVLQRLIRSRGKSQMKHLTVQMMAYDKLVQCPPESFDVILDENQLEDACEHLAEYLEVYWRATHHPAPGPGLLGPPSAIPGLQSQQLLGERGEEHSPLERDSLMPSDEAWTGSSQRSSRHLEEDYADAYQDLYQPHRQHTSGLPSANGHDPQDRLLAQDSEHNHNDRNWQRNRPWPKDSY

With `CC[C@H](C)[C@H](NC(=O)[C@H](Cc1c[nH]c2ccccc12)NC(=O)[C@H](CC(=O)O)NC(=O)[C@H](CC(C)C)NC(=O)[C@H](Cc1ccc(O)cc1)NC(=O)CNC(=O)[C@H](CCCCN)NC(=O)[C@H](CC(C)C)NC(=O)[C@H](CC(=O)O)NC(=O)[C@@H]1CSCc2cccc(c2)CSC[C@H](N)C(=O)N[C@@H](CO)C(=O)N2CCC[C@H]2C(=O)N[C@@H](CC(C)C)C(=O)N[C@@H](CCC(=O)O)C(=O)N1)C(=O)N[C@H](C(=O)N[C@@H](CCC(N)=O)C(=O)N[C@@H](C)C(=O)N[C@@H](CCC(=O)O)C(N)=O)[C@@H](C)O` [AID-CAP] (H-CSPLECDLKGYLDWITQAE-NH2; linker 1-6 via mXylylene) the Kd (CaVβ2a core; [2]) was 5.1 ± 1.6 nM.
For `CC[C@H](C)[C@H](NC(=O)[C@H](Cc1c[nH]c2ccccc12)NC(=O)[C@@H]1CSCc2cccc(c2)CSC[C@H](NC(=O)[C@H](CC(C)C)NC(=O)[C@H](CC(=O)O)NC(=O)[C@H](CCC(=O)O)NC(=O)[C@H](CCC(=O)O)NC(=O)[C@H](CC(C)C)NC(=O)[C@@H]2CCCN2C(=O)[C@H](CO)NC(=O)[C@H](C)N)C(=O)NCC(=O)N[C@@H](Cc2ccc(O)cc2)C(=O)N[C@@H](CC(C)C)C(=O)N1)C(=O)N[C@H](C(=O)N[C@@H](CCC(N)=O)C(=O)N[C@@H](C)C(=O)N[C@@H](CCC(=O)O)C(N)=O)[C@@H](C)O` [AID-CEN] (H-ASPLEEDLCGYLCWITQAE-NH2; linker 9-13 via mXylylene), the Kd (CaVβ2a core; [2]) was 5.2 ± 1.5 nM.
With CQQLEEDLKGYLDWITQAE-NH2 [AID] the Kd (CaVβ2a core; [2]) was 6.6 ± 2 nM, the ΔH (CaVβ2a core; [3]) was “–15.6 ± 2.4 kcal mol^–1” and the ΔS (CaVβ2a core; [3]) was “–16.7 ± 6.0 cal mol^–1 K^–1”. For the same molecule, the “N (binding stoichiometry)” value (CaVβ2a core; [2]) was 0.94 ± 0.07, the “Kd/Kd CaV1.2 AID” value (CaVβ2a core; ratio of Kd to that of CaV1.2 AID) was 1 and the “P vs HotA, Figure 7B, E, F (ti300, Imax)” value (CaV1.2:CaVβ3; 2.8 mM peptide vs 4 mM HotA) was under 0.001. For the same molecule, the “P vs HotA, Figure 7C, D (inactivation τ, ΔV1/2)” value (CaV1.2:CaVβ3; 2.8 mM peptide vs 4 mM HotA) was under 0.05, the “change in channel inactivation kinetics, in words” value (CaV1.2:CaVβ3; [4]) was “changed from one having two components to a monoexponential process” and the “current rundown, in words” value (CaV1.2:CaVβ3; [4]) was “strongly increased current rundown”. For the same molecule, the A1 (CaV1.2:CaVβ3; [5]) was 54.0 ± 2.7%, the A2 (CaV1.2:CaVβ3; [5]) was 34.1 ± 1.4% and the τ1 (CaV1.2:CaVβ3; [5]) was 40.0 ± 5.2 ms. It also gave a τ2 (CaV1.2:CaVβ3; [5]) of 354.4 ± 119.2 ms, an A1 (CaV1.2:CaVβ3; [6]) of 76.9 ± 3.1% and a τ1 (CaV1.2:CaVβ3; [6]) of 62.6 ± 7.6 ms. For the same molecule, the “ti300, percent inactivation at 300 ms” value (CaV1.2:CaVβ3; 5 min postinjection, 2.8 mM peptide, +20 mV, mean ± SEM, N = 6 (AID-CAP), 7 (AID)) was 73.4 ± 2.0%, the “V1/2, midpoint of activation” value (CaV1.2:CaVβ3; [7]) was 10.4 ± 2.2 mV and the “Imax, maximal current amplitude” value (CaV1.2:CaVβ3; [7]) was “–0.860 ± 0.096”. For the same molecule, the A1 (CaV1.2:CaVβ3; [8]) was 65.0 ± 4.0%, the τ1 (CaV1.2:CaVβ3; [8]) was 118.2 ± 11.0 ms and the “ti300, percent inactivation at 300 ms” value (CaV1.2:CaVβ3; 30 min postinjection, 2.8 mM peptide, +20 mV, mean ± SEM, N = 6 (AID-CAP), 7 (AID)) was 49.8 ± 1.9%. The “V1/2, midpoint of activation” value (CaV1.2:CaVβ3; [9]) was 21.0 ± 2.0 mV, the “Imax, maximal current amplitude” value (CaV1.2:CaVβ3; [9]) was “–0.116 ± 0.010” and the “effect on CaV1.2α1:CaVβ3 interaction, in words” value (CaV1.2:CaVβ3; 30 min postinjection, AID, AID-CAP 2.8 mM, HotA 4 mM) was “near complete disruption of the CaV1.2α1:CaVβ3 interaction”. For the same molecule, the “P vs HotA, all panels of Figure 5 (ti300, A1, ΔV1/2, Imax)” value (CaV1.2-Y437A:CaVβ2a) was under 0.001, the “effect on inactivation / CaVβ binding, in words” value (CaV1.2-Y437A:CaVβ2a; 30 min postinjection) was “interfered completely with CaVβ binding” and the “rundown of Imax” value (CaV1.2-Y437A:CaVβ2a; over 30 min postinjection, vs water or HotA) was “consistently higher rundown”. For the same molecule, the “ti300, percent inactivation at 300 ms” value (CaV1.2-Y437A:CaVβ2a; 5 min postinjection) was 64.9 ± 1.9%, the “A1, relative amplitude of fast inactivation component” value (CaV1.2-Y437A:CaVβ2a; 5 min postinjection) was 48.5 ± 1.8% and the “A2, relative amplitude of second inactivation component” value (CaV1.2-Y437A:CaVβ2a; 5 min postinjection) was 24.1 ± 1.6%. For the same molecule, the “τ1, fast inactivation time constant” value (CaV1.2-Y437A:CaVβ2a; 5 min postinjection) was 35.0 ± 1.5 ms, the “τ2, second inactivation time constant” value (CaV1.2-Y437A:CaVβ2a; 5 min postinjection) was 251.5 ± 16.1 ms and the “V1/2, midpoint of activation” value (CaV1.2-Y437A:CaVβ2a; 5 min postinjection) was 2.9 ± 1.7 mV. For the same molecule, the “Imax, maximal current amplitude” value (CaV1.2-Y437A:CaVβ2a; 5 min postinjection) was “–0.883 ± 0.111”, the “ti300, percent inactivation at 300 ms” value (CaV1.2-Y437A:CaVβ2a; 30 min postinjection) was 44.8 ± 2.1% and the “A1, relative amplitude of fast inactivation component” value (CaV1.2-Y437A:CaVβ2a; 30 min postinjection) was 24.5 ± 3.0%. For the same molecule, the “A2, relative amplitude of second inactivation component” value (CaV1.2-Y437A:CaVβ2a; 30 min postinjection) was 31.0 ± 1.9%, the “τ1, fast inactivation time constant” value (CaV1.2-Y437A:CaVβ2a; 30 min postinjection) was 53.3 ± 14.4 ms and the “τ2, second inactivation time constant” value (CaV1.2-Y437A:CaVβ2a; 30 min postinjection) was 304.0 ± 50.9 ms. For the same molecule, the “V1/2, midpoint of activation” value (CaV1.2-Y437A:CaVβ2a; 30 min postinjection) was 15.1 ± 2.0 mV, the “Imax, maximal current amplitude” value (CaV1.2-Y437A:CaVβ2a; 30 min postinjection) was “–0.242 ± 0.021” and the “CD spectrum / helical content, in words” value [1] was “absent”.
